Data taken from PubChem BioAssay (NCI).
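Dose response: 5 concentrations. Exposure: 48 h. Format: 96-well plates. Endpoint: linear interpolation; highest concentration if not reached. The concentration for 50% growth inhibition is given as GI50. TGI: total growth inhibition.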

What was measured:
Assay in all cases: growth of human tumour cells (NCI), 48 h; in the data active = GI50 below about 0.43 µM; inactive = the rest
[1] = system: HCT-15 colon
[2] = system: COLO 205 colon
[3] = system: NCI-H522 lung
[4] = system: HS 578T breast
[5] = system: OVCAR-3 ovarian
[6] = system: MDA-MB-231 breast
[7] = system: RPMI-8226 leukemia
[8] = system: U251 CNS
[9] = system: SW-620 colon
[10] = system: SF-539 CNS
[11] = system: NCI/ADR-RES ovarian
[12] = system: NCI-H460 lung
[13] = system: OVCAR-5 ovarian
[14] = system: T-47D breast
[15] = system: MALME-3M melanoma
[16] = system: SF-268 CNS
[17] = system: MCF7 breast
[18] = system: HOP-92 NSCLC
[19] = system: SK-OV-3 ovarian
[20] = system: KM12 colon
[21] = system: DU-145 prostate
[22] = system: NCI-H226 lung
[23] = system: HT29 colon
[24] = system: PC-3 prostate
[25] = system: BT-549 breast
[26] = system: A549 NSCLC
[27] = system: SK-MEL-5 melanoma
[28] = system: SF-295 CNS
[29] = system: SK-MEL-2 melanoma
[30] = system: TK-10 renal
[31] = system: M14 melanoma
[32] = system: HOP-62 NSCLC
[33] = system: UO-31 renal
[34] = system: EKVX NSCLC
[35] = system: NCI-H23 lung
[36] = system: IGROV1 ovarian
[37] = system: CAKI-1 renal
[38] = system: UACC-257 melanoma
[39] = system: HL-60(TB) leukemia
[40] = system: UACC-62 melanoma
[41] = system: 786-0 renal
[42] = system: MOLT-4 leukemia
[43] = system: OVCAR-8 ovarian
[44] = system: SNB-19 CNS
[45] = system: SN12C renal
[46] = system: SK-MEL-28 melanoma
[47] = system: ACHN renal
[48] = system: A498 renal
[49] = system: LOX IMVI melanoma
[50] = system: RXF 393 renal
[51] = system: HCT-116 colon
[52] = system: MDA-MB-435
[53] = system: CCRF-CEM leukemia
[54] = system: OVCAR-4 ovarian
[55] = system: K-562 leukemia
[56] = system: SNB-75 CNS
[57] = system: HCC-2998 colon

Cc1ccc(-c2cc(C(Cl)Cl)on2)cc1
> 100 µM: TGI [1] | TGI [2] | TGI [3] | TGI [4] | TGI [5] | TGI [6] | TGI [7] | TGI [8] | TGI [9] | TGI [10] | TGI [11] | TGI [12] | TGI [13] | TGI [14] | TGI [15] | TGI [16] | TGI [17] | TGI [18] | TGI [19] | TGI [20] | TGI [21] | TGI [22] | TGI [23] | TGI [24] | TGI [25] | TGI [26] | TGI [27] | TGI [28] | TGI [29] | TGI [30] | TGI [31] | TGI [32] | TGI [33] | TGI [34] | TGI [35] | TGI [36] | TGI [37] | TGI [38] | TGI [39] | TGI [40] | TGI [41] | TGI [42] | TGI [43] | TGI [44] | TGI [45] | TGI [46] | TGI [47] | TGI [48] | TGI [49] | TGI [50] | TGI [51] | TGI [52] | TGI [53] | TGI [54]
inactive: GI50 [1] 42.4 µM | GI50 [2] 35.4 µM | GI50 [3] 48.5 µM | GI50 [4] > 100 µM | GI50 [5] 51.8 µM | GI50 [6] > 100 µM | GI50 [7] 33.8 µM | GI50 [8] 55.1 µM | GI50 [9] 67.5 µM | GI50 [10] > 100 µM | GI50 [11] 44.9 µM | GI50 [12] 49.1 µM | GI50 [13] > 100 µM | GI50 [14] 35.3 µM | GI50 [15] > 100 µM | GI50 [16] > 100 µM | GI50 [17] 97.6 µM | GI50 [18] 33.5 µM | GI50 [19] > 100 µM | GI50 [20] 36.6 µM | GI50 [21] 91.4 µM | GI50 [22] 48.2 µM | GI50 [23] 26.9 µM | GI50 [24] 49.9 µM | GI50 [25] > 100 µM | GI50 [26] 65.6 µM | GI50 [27] 25.3 µM | GI50 [28] 60 µM | GI50 [29] > 100 µM | GI50 [30] 54.9 µM | GI50 [31] 74.1 µM | GI50 [32] 95.5 µM | GI50 [33] 49.5 µM | GI50 [34] 46.1 µM | GI50 [35] 55.3 µM | GI50 [36] > 100 µM | GI50 [37] 43.8 µM | GI50 [38] 67.7 µM | GI50 [39] 62.9 µM | GI50 [40] 66.8 µM | GI50 [41] 60.3 µM | GI50 [42] 26.8 µM | GI50 [43] > 100 µM | GI50 [44] > 100 µM | GI50 [45] > 100 µM | GI50 [46] > 100 µM | GI50 [47] 33.5 µM | GI50 [48] 42.7 µM | GI50 [49] 41.1 µM | GI50 [50] > 100 µM | GI50 [51] 36.1 µM | GI50 [52] 62.9 µM | GI50 [53] 40.9 µM | GI50 [54] 77.6 µM

Cc1ccc2c(C(C[N+](=O)[O-])c3ccco3)c(-c3ccccc3)[nH]c2c1 (configuration not stated)
> 100 µM: TGI [1] | TGI [55] | TGI [2] | TGI [3] | TGI [4] | TGI [5] | TGI [6] | TGI [7] | TGI [8] | TGI [9] | TGI [10] | TGI [11] | TGI [12] | TGI [13] | TGI [14] | TGI [15] | TGI [16] | TGI [17] | TGI [18] | TGI [19] | TGI [20] | TGI [21] | TGI [22] | TGI [23] | TGI [24] | TGI [25] | TGI [26] | TGI [27] | TGI [28] | TGI [29] | TGI [30] | TGI [31] | TGI [32] | TGI [33] | TGI [34] | TGI [35] | TGI [36] | TGI [37] | TGI [38] | TGI [39] | TGI [40] | TGI [41] | TGI [57] | TGI [42] | TGI [43] | TGI [44] | TGI [45] | TGI [46] | TGI [47] | TGI [49] | TGI [50] | TGI [51] | TGI [53] | TGI [54]
inactive: GI50 [1] 7.28 µM | GI50 [55] 5.19 µM | GI50 [2] 31.7 µM | GI50 [3] 3.92 µM | GI50 [4] 17.5 µM | GI50 [5] 22.8 µM | GI50 [6] 27.1 µM | GI50 [7] 53.7 µM | GI50 [8] 46.2 µM | GI50 [9] 11.4 µM | GI50 [10] 30.6 µM | GI50 [11] 11.7 µM | GI50 [12] 26.7 µM | GI50 [13] > 100 µM | GI50 [14] 23 µM | GI50 [15] 21.8 µM | GI50 [16] > 100 µM | GI50 [17] 9.09 µM | GI50 [18] > 100 µM | GI50 [19] 37.2 µM | GI50 [20] 21.5 µM | GI50 [56] 4.75 µM | GI50 [21] 74.4 µM | GI50 [22] > 100 µM | GI50 [23] > 100 µM | GI50 [24] 39.2 µM | GI50 [25] 48.8 µM | GI50 [26] 48.3 µM | GI50 [27] 29.7 µM | GI50 [28] 21.9 µM | GI50 [29] 38.2 µM | GI50 [30] 12.3 µM | GI50 [31] 12.2 µM | GI50 [32] 16 µM | GI50 [33] 33.1 µM | GI50 [34] 55 µM | GI50 [35] 64.5 µM | GI50 [36] 24.6 µM | GI50 [37] 5.63 µM | GI50 [38] > 100 µM | GI50 [39] 28.3 µM | GI50 [40] 26.8 µM | GI50 [41] 41.3 µM | GI50 [57] > 100 µM | GI50 [42] 30.7 µM | GI50 [43] 84.8 µM | GI50 [44] 59 µM | GI50 [45] 47.8 µM | GI50 [46] 98.9 µM | GI50 [47] 41.4 µM | GI50 [48] 4.02 µM | GI50 [49] 44.2 µM | GI50 [50] 32.2 µM | GI50 [51] 19.8 µM | GI50 [52] 3.04 µM | GI50 [53] 34.1 µM | GI50 [54] 69 µM
71 µM: TGI [56]
74.3 µM: TGI [48]
10.8 µM: TGI [52]
